Measured values from the supplement of paper PMC10307832.

Key:
Assay in all cases: relative viability (nuclei count vs DMSO), 5 days (fraction); higher = more cells survive
[1] = compound: CCC1=CN=CN=C1N2CCN(CC2)CC3=NC4=C(N3)C=C(C=C4)C(F)(F)F + CC(C)C[C@H](NC(=O)[C@H](Cc1ccccc1)NC(=O)c1cnccn1)B(O)O [Bortezomib] (partner 0.002 µM)
Method in brief: (§1)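 The day after seeding in 1536-well plates, lung cancer cell lines were treated by pin tool with a single drug, or with a fixed anchor-drug dose together with five library-drug doses (not always all listed) in √10 steps. After 5 days, a combined fix-and-stain solution (final 0.05% Triton X-100, 1% formaldehyde, 1 ug/ml Hoechst) was added. Nuclei counted on 4× images gave relative viability as treated counts over vehicle counts, reported as the median of duplicate plates.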

[2] = compound: CCC1=CN=CN=C1N2CCN(CC2)CC3=NC4=C(N3)C=C(C=C4)C(F)(F)F + CCNC(=O)c1noc(-c2cc(C(C)C)c(O)cc2O)c1-c1ccc(CN2CCOCC2)cc1 [Luminespib] (partner 0.01 µM)
Method in brief: as §1

[3] = compound: CCC1=CN=CN=C1N2CCN(CC2)CC3=NC4=C(N3)C=C(C=C4)C(F)(F)F + CS(=O)(=O)N1CCN(Cc2cc3nc(-c4cccc5[nH]ncc45)nc(N4CCOCC4)c3s2)CC1 [Pictilisib] (partner 1 µM)
Method in brief: as §1

Mirin + Trametinib = compound: N=C1NC(=O)/C(=C/c2ccc(O)cc2)S1 [Mirin] + CC(=O)Nc1cccc(-n2c(=O)n(C3CC3)c(=O)c3c(Nc4ccc(I)cc4F)n(C)c(=O)c(C)c32)c1 [Trametinib] (partner 0.02 µM)
Method in brief: as §1

Cell Line | relative viability ([1]; first compound 0.1265 µM) | relative viability ([1]; first compound 0.4 µM) | relative viability ([1]; first compound 1.265 µM) | relative viability ([1]; first compound 4 µM) | relative viability ([2]; first compound 0.04 µM) | relative viability ([2]; first compound 0.1265 µM) | relative viability ([2]; first compound 0.4 µM) | relative viability ([2]; first compound 1.265 µM) | relative viability ([2]; first compound 4 µM) | relative viability ([3]; first compound 0.04 µM) | relative viability ([3]; first compound 0.1265 µM) | relative viability ([3]; first compound 0.4 µM) | relative viability ([3]; first compound 1.265 µM) | relative viability ([3]; first compound 4 µM) | relative viability (Mirin + Trametinib; first compound 0.25 µM) | relative viability (Mirin + Trametinib; first compound 0.7906 µM) | relative viability (Mirin + Trametinib; first compound 2.5 µM) | relative viability (Mirin + Trametinib; first compound 7.906 µM) | relative viability (Mirin + Trametinib; first compound 25 µM) | relative viability ([1]; first compound 0.04 µM)
LCLC-97TM1 | 0.516 | 0.598 | 0.668 | 0.942 | 0.706 | 0.779 | 0.724 | 0.733 | 0.716 | 0.181 | 0.198 | 0.181 | 0.204 | 0.214 | 0.172 | 0.179 | 0.235 | 0.176 | 0.165 | –
NCI-H322M | 1.17 | 1.2 | 1.3 | 1.39 | 0.988 | 0.846 | 0.808 | 0.805 | 0.918 | 0.581 | 0.484 | 0.507 | 0.381 | 0.524 | 0.497 | 0.506 | 0.555 | 0.564 | 0.571 | 1.37
PC-3 [JPC-3] | 0.765 | 0.757 | 0.807 | 0.854 | 0.681 | 0.733 | 0.668 | 0.71 | 0.618 | 0.704 | 0.657 | 0.604 | 0.739 | 0.697 | 0.669 | 0.72 | 0.7 | 0.73 | 0.786 | 0.838
EPLC-272H | 0.885 | 0.829 | 1.43 | 1.08 | 0.24 | 0.344 | 0.21 | 0.25 | 0.3 | 0.305 | 0.285 | 0.287 | 0.302 | 0.284 | 0.308 | – | 0.281 | 0.3 | 0.317 | 0.696
A-427 | 0.896 | 0.936 | 0.878 | 0.989 | 0.874 | 0.881 | 0.908 | 0.75 | 0.722 | 0.675 | 0.685 | 0.682 | 0.637 | 0.574 | 0.734 | 0.647 | 0.718 | 0.677 | 0.706 | 0.926
